Experimental data as given in PubChem BioAssay (NCI).
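A five-concentration, 48-hour dose response in 96-well plates underlies each endpoint, interpolated linearly between surrounding concentrations. GI50 = concentration required for 50% inhibition of growth. The concentration for full growth arrest is given as TGI.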

Tests used:
Test in all cases: NCI-60 cell line screen, 48 h
[1] = system: IGROV1 ovarian
[2] = system: A549 NSCLC
[3] = system: HCC-2998 colon
[4] = system: SF-295 CNS
[5] = system: NCI-H522 lung
[6] = system: K-562 leukemia
[7] = system: OVCAR-4 ovarian
[8] = system: 786-0 renal
[9] = system: COLO 205 colon
[10] = system: BT-549 breast

SMILES	TGI [1] [µM]	TGI [2] [µM]	TGI [3] [µM]	TGI [4] [µM]	TGI [5] [µM]	TGI [6] [µM]	TGI [7] [µM]	TGI [8] [µM]	TGI [9] [µM]	GI50 [5] [µM]	GI50 [6] [µM]	GI50 [7] [µM]	TGI [10] [µM]	GI50 [1] [µM]	GI50 [2] [µM]	GI50 [3] [µM]	GI50 [4] [µM]	GI50 [8] [µM]	GI50 [9] [µM]	GI50 [10] [µM]
CCCCCCCCCCC(C)CCCCCCC(=O)O (configuration not stated)	> 100	> 100	> 100	> 100	> 100	> 100	> 100	> 100	> 100	–	–	–	–	–	–	–	–	–	–	–
CC(=O)N/C(=C\c1ccc(Cc2nc3c([nH]2)C(=O)c2ccccc2C3=O)cc1)c1nc2c([nH]1)C(=O)c1ccccc1C2=O	> 100	> 100	> 100	> 100	> 100	> 100	> 100	> 100	> 100	–	–	–	–	–	–	–	–	–	–	–
CCN(CC)CC(=N)N(CC)c1ccccc1	> 100	> 100	> 100	> 100	> 100	> 100	> 100	> 100	> 100	–	–	–	–	–	–	–	–	–	–	–
O=C(/C=C\c1cccc2ccccc12)c1cccc2ccccc12	25.9	36.5	28.4	30.2	16.1	18.6	36.9	17.4	–	4.46	2.82	11.3	–	–	–	–	–	–	–	–
O=C(NC(=O)c1ccccc1[N+](=O)[O-])Nc1ccc(Oc2ncc(Cl)cn2)c(C(F)(F)F)c1	> 100	> 100	0.0775	> 4.64	0.16	> 100	98.4	24.6	0.109	–	–	–	–	–	–	–	–	–	–	–
Oc1c(CN2CCN(c3ccccc3)CC2)cc(Br)c2cccnc12	> 100	> 100	–	> 95	36.8	> 40.8	> 100	14.5	> 100	–	–	–	> 100	–	–	–	–	–	–	–
CC(=O)[O-].O=C([CH-]C(=O)c1ccccc1)c1ccccc1.O=C([CH-]C(=O)c1ccccc1)c1ccccc1.[Sm+3]	45.1	29.5	14.6	17.2	7.49	27.4	62.6	16.3	22.8	1.43	3.68	4.81	–	5.92	6.11	3.81	2.66	3.2	7.89	–
C/C(=N\NC(=S)N(C)C)c1ccccn1	4.66	14.3	15	13.1	1.98	> 41.3	10.4	11.3	–	–	0.000104	–	9.59	0.00402	–	–	0.012	0.0154	–	–
C/C=N\N1C(=O)c2ccccc2C1=O	> 100	> 100	> 100	> 100	–	> 100	> 100	> 100	–	–	–	–	–	–	–	–	–	–	–	–
NC(=S)NN=C1CSSC1	63.1	12.1	40.3	–	15.4	> 100	38.7	72.5	5.67	2.95	27	4.32	10.1	5	2.26	6.74	–	11.9	2.4	3.37
CC(C)=CC(=O)Cc1nc2ccc([N+](=O)[O-])cc2[nH]c1=O	> 100	> 100	–	> 100	> 100	> 100	> 100	> 100	> 100	–	–	–	–	–	–	–	–	–	–	–
CCCCCn1c(C)cc(/C=C\c2ccc3cc(C)ccc3[n+]2C)c1C	1.11	0.97	1.51	0.595	–	1.11	1.51	1.17	–	–	0.0341	0.0683	0.664	0.0386	0.0557	0.143	0.0982	0.219	–	0.0699
COc1cc2c3c(n(C)c(=O)c2cc1OC)-c1cc2c(cc1/C3=C\CCNCCCN)OCO2	> 100	> 100	–	–	25.5	12.1	7.56	12.5	15.4	1.67	2.08	1.04	21.1	1.82	4.53	–	–	1.99	0.487	4.65
O=Nc1c(-c2c(O)[nH]c3ccc(Br)cc23)[nH]c2ccccc12	> 100	> 100	–	54.1	47.6	4.87	74.4	14.1	13.9	3.35	2	5.94	20.2	2.5	3.21	–	9.8	3.25	2.82	4.57
COc1ccccc1C(=O)N(C)c1ccc(Cl)c(C(=O)OC(C)C)c1	> 100	> 100	> 100	94.5	> 100	–	> 100	> 100	> 100	–	–	–	97.7	–	–	–	–	–	–	–
O=C(O)/C(=C\c1ccncc1)c1cccc2ccccc12	> 100	> 100	–	> 100	> 100	> 100	> 100	> 100	> 100	–	–	–	> 100	–	–	–	–	–	–	–
CCc1cccc(C)c1NC(=O)CC1C(=O)Nc2ccccc2S1(=O)=O (configuration not stated)	35.2	35.2	30.4	82.1	32.5	14.7	29.6	31.5	–	–	–	–	–	–	–	–	–	–	–	–
CC(=O)[CH-]C(C)=O.CC(=O)[CH-]C(C)=O.CC[O-].CC[O-].[Ti+4]	> 100	> 100	> 100	> 100	> 100	> 100	> 100	> 100	> 100	> 100	> 100	> 100	–	> 100	> 100	> 100	> 100	> 100	> 100	–
N.N.O=P([O-])([O-])C1(P(=O)([O-])[O-])CCCCCN1.[Pt+2]	> 100	> 100	> 100	> 100	> 100	> 100	> 100	> 100	> 100	> 100	> 100	> 100	–	> 100	> 100	> 100	> 100	> 100	> 100	–
